Paper PMC6930638, “The Masked Polar Group Incorporation (MPGI) Strategy in Drug Design: Effects of Nitrogen Substitutions on Combretastatin and Isocombretastatin Tubulin Inhibitors” (Molecules, 2019)
Read-outs that look alike come from different tables or passages of the source.

What was measured:
[1] = system: HeLa cervix epithelioid carcinoma; assay: MTT cell antiproliferative assay, HeLa; type: cell-based; conditions: Homo sapiens, 72 h
Experimental: (§1) The in vitro antiproliferative activity of the synthesized compounds was evaluated by a colorimetric reaction, using the MTT reagent. They were tested against three different human tumor cell lines: HeLa cervix epithelioid carcinoma, HT-29 colon adenocarcinoma, and MCF-7 breast adenocarcinoma. […] Moving the alkylamino substituent from a para to a meta position with respect to the bridge results in potency reduction, except for the phenstatin analogue 1f. However, the introduction of a nitrogen atom to form 2-dimethylaminopyridine derivatives entails a loss of activity, both for phenstatin analogues (1b, 2b), while for isocombretastatins, it only involves a 2–3 times potency decrease (3b). For combretastatins, it implies an improvement in the cytotoxicity values down to tenths of nanomolar (8b). […] On the other hand, the best 2-dimethylaminopyridine was combretastatin 8b. All ammonium salts derivatives were not cytotoxic at micromolar concentrations.
(§2) HeLa (human cervical carcinoma) and MCF-7 (human breast carcinoma) cell lines were cultured in Dulbecco’s Modified Eagles Medium (DMEM) supplemented with 2 mM L-glutamine (Lonza-Cambrex, Karlskoga, Sweden), 10% (v/v) heat inactivated fetal bovine serum (HIFBS) (Lonza-Cambrex) and 100 μg/mL streptomycin-100 IU/mL penicillin (Lonza-Cambrex) at 37 °C in humidified 95% air and 5% CO2. HT-29 (human colon carcinoma) cells were cultured at 37 °C in complete RPMI 1640 medium containing 2 mM L-glutamine, 10% (v/v) HIFBS and 100 μg/mL streptomycin-100 IU/mL penicillin in humidified 95% air and 5% CO2 atmosphere.
(§3) The effect of the different compounds on the proliferation of human cell lines was determined by using the MTT (3-[4,5-dimethylthiazol-2-yl]-2,5-diphenyltetrazolium bromide) reagent (MTT Thiazolyl Blue Tetrazolium Bromide, Sigma-Aldrich, St. Louis, MO, USA) dissolved in PBS 5 mg/mL. Cell viability was evaluated seeding 100 µL of cells in exponential growth phase with appropriate cell line concentration (1.5 × 10^4 HeLa and MCF-7 cells/mL and 3 × 10^4 HT-29 cells/mL) in complete medium in 96-well plates at 37 °C and 5% CO2. After 24 h incubation to allow cells to attach to the plates the ligands were added at different concentrations from 10^−5 to 10^−9 M. The effect on the proliferation was evaluated 72 h post-treatment by adding the MTT reagent (10 µL/well) to a final concentration of 0.5 mg/mL and the plate was further incubated for another 3 h. After this period, the supernatant was removed, the MTT violet crystals formed on the bottom of each well were dissolved in DMSO (100 µL/well) and subsequently, the absorbance of the color complex was read at 570 nm using a multi-well plate reader. Compounds were dissolved in dimethyl sulfoxide (DMSO) and the final solvent concentrations never exceeded 0.5% (v/v). The control wells included treated cells with 0.5% (v/v) DMSO and the positive control. Measurements were performed in triplicate, and each experiment was repeated three times. […] Nonlinear curves fitting the experimental data were carried out for each compound.

[2] = system: MCF-7 breast adenocarcinoma; assay: MTT cell antiproliferative assay, MCF-7; type: cell-based; conditions: Homo sapiens, MCF7, 72 h
Experimental: as §1, §2, §3

[3] = system: Bovine brain microtubule protein (MTP); assay: Tubulin polymerization inhibition assay (turbidimetry); type: biochemical; conditions: 1.5 mg/mL MTP; IC50 calculated only if more than 50% inhibition at 20 µM; read-out: TPI IC50
Experimental: Bovine brain microtubule protein (MTP) was isolated as previously described. Briefly, it was purified according to the modified Shelanski method by two cycles of temperature-dependent assembly/disassembly.
Tubulin polymerization was monitored using a Helios α spectrophotometer by measuring the increase in turbidity at 450 nm, caused by a shift from 4 °C to 37 °C, which allows the in vitro MTP self-disassembly and assembly respectively. […] Firstly, ligands at 20 µM concentration, were incubated with 1.5 mg/mL MTP at 20 °C for 30 min and subsequently cooled on ice for 10 min. Then, the experiment starts at 4 °C to establish the initial baseline. The assembly process was initiated by shifting of the temperature to 37 °C and the turbidity produced can be measured by an absorbance increase. After reaching a stable plateau, the temperature was switched back to 4 °C to return to the initial absorption values. The difference in amplitude between the stable plateau and the initial baseline of the curves was taken as the degree of tubulin polymerization for each experiment. […] All the measurements were carried out in at least two independent experiments using MTP from different isolation.

[4] = system: HeLa, HT-29 and MCF-7 human tumor cell lines; assay: Antiproliferative activity over the three human tumor cell lines (MTT); type: cell-based; conditions: range over the cell lines, Table S1, read-out: Cytotoxicity range (range of antiproliferative IC50 values)
Experimental: as §1
The antiproliferative activity of the compounds against three human tumor cell lines of different origins (i.e., HeLa cervix epithelioid carcinoma, HT-29 colon adenocarcinoma and MCF-7 breast adenocarcinoma) was evaluated by the MTT method. […] This high success rate is the result of a combination of favorable scaffolds and substituents, and it is similar to those of previous reports on related series. […] We have previously observed the same trend for related compounds acting at the colchicine site of tubulin [10, 23]. For this pyridine series, we observed a different potency trend when we compare the 4-amino-3-pyridine and the 3-amino-4-pyridine derivatives. […] This different behavior is probably a reflection of their different shape, combined with the different geometries imposed by different bridges. We have previously shown that the potency ordering isocombretastatins similar to oximes higher than benzophenones could be explained by the higher conjugation of the ketones with the aromatic rings, which imposes a more planar disposition than those required for high affinity colchicine site binding. For the 3-amino-4-pyridine series, more planar structures are required in order to avoid the bumping of the amino substituents with tubulin out the plane of the aromatic ring, an effect which we have previously shown to impact the potency of 3-substituted indolecombretastatins and dimethylaminophenyl phenstatins. This different geometrical disposition of the amino substituents, and the different adaptability of their corresponding pockets in the two series, can also account for the preference of bulkier substituents at position 3, such as the pyrrolidine rather than the smaller dimethylamino. […] The opposite is observed for the 4-dimethylaminophenyl phenstatins 1a and 1b. […] The remarkable levels of solubility achieved for the quaternary ammonium salts came unfortunately at the expenses of biological activity.
The effect of the different compounds on the proliferation of human cell lines was determined by using the MTT (3-[4,5-dimethylthiazol-2-yl]-2,5-diphenyltetrazolium bromide) reagent (MTT Thiazolyl Blue Tetrazolium Bromide, Sigma-Aldrich, St. Louis, MO, USA) dissolved in PBS 5 mg/mL. Cell viability was evaluated seeding 100 µL of cells in exponential growth phase with appropriate cell line concentration (1.5 × 10^4 HeLa and MCF-7 cells/mL and 3 × 10^4 HT-29 cells/mL) in complete medium in 96-well plates at 37 °C and 5% CO2. After 24 h incubation to allow cells to attach to the plates the ligands were added at different concentrations from 10^−5 to 10^−9 M. The effect on the proliferation was evaluated 72 h post-treatment by adding the MTT reagent (10 µL/well) to a final concentration of 0.5 mg/mL and the plate was further incubated for another 3 h. […]

Compound | IC50 [1] [µM] | IC50 [2] [µM] | IC50 [3] [µM] | IC50 ([4]; Homo sapiens) [µM] | IC50 [4] [µM] | IC50 ([4]; heading: Cytotoxicity range) [µM]
COc1ccc(OC)c(C(=O)c2ccc(N(C)C)cc2)c1 [Compound 1e, (2,5-dimethoxyphenyl)(4-(dimethylamino)phenyl)methanone] | > 1 | > 1 | > 20 | > 1 | – | –
COc1cc(C(=NO)c2ccc(N3CCCC3)nc2)cc(OC)c1OC [Compound 2c, (6-(Pyrrolidin-1-yl)pyridin-3-yl)(3,4,5-trimethoxyphenyl)methanone oxime] | > 1 | > 1 | > 20 | – | – | –
COc1ccc(OC)c(C(=NO)c2ccc(N(C)C)cc2)c1 [Compound 2e, (2,5-Dimethoxyphenyl)(4-(dimethylamino)phenyl)methanone oxime] | > 1 | > 1 | > 20 | – | – | –
C=C(c1ccc(N(C)C)cc1)c1cc(OC)ccc1OC [Compound 3e, 4-(1-(2,5-Dimethoxyphenyl)vinyl)-N,N-dimethylaniline] | > 1 | > 1 | > 20 | > 1 | – | –
COc1ccc(C(C)c2ccc(N(C)C)cc2)c(OC)c1OC (stereo not drawn) [Compound 4d, N,N-Dimethyl-4-(1-(2,3,4-trimethoxyphenyl)ethyl)aniline] | > 1 | > 1 | > 20 | > 1 | – | –
COc1ccc(OC)c(C(C)c2ccc(N(C)C)cc2)c1 (stereo not drawn) [Compound 4e, 4-(1-(2,5-Dimethoxyphenyl)ethyl)-N,N-dimethylaniline] | > 1 | > 1 | > 20 | > 1 | – | –
COc1cc(C(C)c2cccc(N(C)C)c2)cc(OC)c1OC (stereo not drawn) [Compound 4f, N,N-Dimethyl-3-(1-(3,4,5-trimethoxyphenyl)ethyl)aniline] | > 1 | > 1 | > 20 | > 1 | – | –
COc1cc(C(=O)c2ccc([N+](C)(C)C)cc2)cc(OC)c1OC [Compound 5a, N,N,N-Trimethyl-4-(3,4,5-trimethoxybenzoyl)benzenaminiumiodide] | > 1 | > 1 | > 20 | > 1 | – | –
COc1cc(C=Cc2ccc(N3CCCC3)nc2)cc(OC)c1OC [Compound 8c, 2-(Pyrrolidin-1-yl)-5-(3,4,5-trimethoxystyryl)pyridine] | > 1 | > 1 | > 20 | > 1 | – | –
COc1cc(C=Cc2ccc([N+](C)(C)C)cc2)cc(OC)c1OC [Compound 9a, N,N,N-trimethyl-4-(3,4,5-trimethoxystyryl)benzenaminium iodide] | > 1 | > 1 | > 20 | > 1 | – | –
COc1cc(C=Cc2ccc([N+]3(C)CCCC3)cc2)cc(OC)c1OC [Compound 9i, 1-Methyl-1-(4-(3,4,5-trimethoxystyryl)phenyl)pyrrolidin-1-ium iodide] | > 1 | > 1 | – | – | – | –
COc1cc(C(=NO)c2ccc(N3CCCC3)nc2)cc(OC)c1OC [Compound E-2c, (6-(Pyrrolidin-1-yl)pyridin-3-yl)(3,4,5-trimethoxyphenyl)methanone oxime] | – | – | – | – | > 1 | –
COc1ccc(C(=NO)c2ccc(N(C)C)cc2)c(OC)c1OC [Compound E-2d, (4-(Dimethylamino)phenyl)(2,3,4-trimethoxyphenyl)methanone oxime] | – | – | – | 0.277 to 0.677 | – | –
COc1ccc(OC)c(C(=NO)c2ccc(N(C)C)cc2)c1 [Compound E-2e, (2,5-Dimethoxyphenyl)(4-(dimethylamino)phenyl)methanone oxime] | – | – | – | > 1 | – | –
COc1cc(C(=NO)c2cccc(N(C)C)c2)cc(OC)c1OC [Compound E-2f, (3-(Dimethylamino)phenyl)(3,4,5-trimethoxyphenyl)methanone oxime] | – | – | – | > 1 | – | –
COc1cc(C(=NO)c2ccnc(N(C)C)c2)cc(OC)c1OC [Compound E-2g, (2-(Dimethylamino)pyridin-4-yl)(3,4,5-trimethoxyphenyl)methanone oxime] | – | – | – | 0.407 to 3.33 | – | –
COc1cc(C(=NO)c2ccc([N+](C)(C)C)cc2)cc(OC)c1OC [Compound E-6a, 4-((Hydroxyimino)(3,4,5-trimethoxyphenyl)methyl)-N,N,N-trimethylbenzenaminium iodide] | – | – | – | > 1 | – | –
COc1cc(C(=NO)c2ccc(N3CCCC3)nc2)cc(OC)c1OC [Compound Z-2c, (6-(Pyrrolidin-1-yl)pyridin-3-yl)(3,4,5-trimethoxyphenyl)methanone oxime] | – | – | – | – | – | > 1
COc1ccc(OC)c(C(=NO)c2ccc(N(C)C)cc2)c1 [Compound Z-2e, (2,5-Dimethoxyphenyl)(4-(dimethylamino)phenyl)methanone oxime] | – | – | – | – | > 1 | –
COc1cc(C(=NO)c2cccc(N(C)C)c2)cc(OC)c1OC [Compound Z-2f, (3-(Dimethylamino)phenyl)(3,4,5-trimethoxyphenyl)methanone oxime] | – | – | – | – | > 1 | –
COc1cc(C(=NO)c2ccnc(N(C)C)c2)cc(OC)c1OC [Compound Z-2g, (2-(Dimethylamino)pyridin-4-yl)(3,4,5-trimethoxyphenyl)methanone oxime] | – | – | – | – | 0.407 to 3.33 | –
COc1cc(C(=NO)c2ccc([N+](C)(C)C)cc2)cc(OC)c1OC [Compound Z-6a, 4-((Hydroxyimino)(3,4,5-trimethoxyphenyl)methyl)-N,N,N-trimethylbenzenaminium iodide] | – | – | – | – | > 1 | –
